# Laboratory results as given in ChEMBL document CHEMBL4699440, “Comprehensive review on the anti-bacterial activity of 1,2,3-triazole hybrids” (Eur J Med Chem, 2019).
# Tests used:
# Proteus mirabilis [1] = assay: Antibacterial activity against Proteus mirabilis 13-1; type: functional
# Pseudomonas aeruginosa [2] = assay: Antibacterial activity against Pseudomonas aeruginosa 12 incubated for 20 hrs by agar dilution method; type: functional
# [3] = system: Staphylococcus epidermidis; assay: Antibacterial activity against Staphylococcus epidermidis MTCC 6880 by serial dilution method; type: functional
# Klebsiella pneumoniae [4] = assay: Antibacterial activity against Klebsiella pneumoniae MTCC 618 incubated for 24 hrs by microdilution method; type: functional
# Pseudomonas aeruginosa [5] = assay: Antibacterial activity against Pseudomonas aeruginosa ATCC 12454 incubated for 24 hrs by tube dilution method; type: functional
# Pseudomonas aeruginosa [6] = assay: Antibacterial activity against Pseudomonas aeruginosa RCMB 010043 by broth dilution method; type: functional
# Klebsiella aerogenes = assay: Antibacterial activity against Enterobacter aerogenes ATCC 13048; type: functional
# Klebsiella pneumoniae [7] = assay: Antibacterial activity against Klebsiella pneumoniae ATCC 700603; type: functional
# Bacillus cereus [8] = assay: Antibacterial activity against Bacillus cereus MTCC 430 incubated for 24 hrs by macrodilution tube method; type: functional
# Serratia marcescens = assay: Antibacterial activity against Serratia marcescens ATCC 21074; type: functional
# Klebsiella pneumoniae [9] = assay: Antibacterial activity against Klebsiella pneumoniae 7; type: functional
# Pseudomonas aeruginosa [10] = assay: Antibacterial activity against Pseudomonas aeruginosa MTCC 741 incubated for 24 hrs by microdilution method; type: functional
# Staphylococcus aureus [11] = assay: Antibacterial activity against Staphylococcus aureus RCMB 010025 by broth dilution method; type: functional
# [12] = system: Staphylococcus epidermidis; assay: Antibacterial activity against methicillin-resistant Staphylococcus epidermidis 13-3; type: functional
# Staphylococcus aureus [13] = assay: Antibacterial activity against Staphylococcus aureus by agar dilution method; type: functional
# Klebsiella pneumoniae [14] = assay: Antibacterial activity against Klebsiella pneumoniae ATCC 15380 incubated for 24 hrs by tube dilution method; type: functional
# Escherichia coli [15] = assay: Antibacterial activity against Escherichia coli MTCC 1652 incubated for […] by two-fold serial dilution method; type: functional; details: time 24 hrs
# [16] = system: Stenotrophomonas maltophilia; assay: Antibacterial activity against Stenotrophomonas maltophilia ATCC 13636; type: functional
# Streptococcus pneumoniae = assay: Antibacterial activity against Streptococcus pneumoniae RCMB 010010 by broth dilution method; type: functional
# Staphylococcus aureus [17] = assay: Antibacterial activity against Staphylococcus aureus MTCC 96 incubated for 24 hrs by microdilution method; type: functional
# Bacillus subtilis [18] = assay: Antibacterial activity against Bacillus subtilis RCMB 010067 by broth dilution method; type: functional
# Staphylococcus aureus [19] = assay: Antibacterial activity against Staphylococcus aureus ATCC 25923 incubated for 24 hrs by microdilution method; type: functional
# [20] = system: Staphylococcus epidermidis; assay: Antibacterial activity against methicillin-sensitive Staphylococcus epidermidis ATCC 12228; type: functional
# Bacillus subtilis [21] = assay: Antibacterial activity against Bacillus subtilis MTCC 441 by serial dilution method; type: functional
# Escherichia coli [22] = assay: Antibacterial activity against Escherichia coli RCMB 010052 by broth dilution method; type: functional
# Streptococcus pyogenes = assay: Antibacterial activity against Streptococcus pyogenes ATCC 35552 incubated for 24 hrs by tube dilution method; type: functional
# Escherichia coli [23] = assay: Antibacterial activity against Escherichia coli MTCC […] by serial dilution method; type: functional
# Proteus vulgaris [24] = assay: Antibacterial activity against Proteus vulgaris ATCC 29905; type: functional
# Enterococcus faecium [25] = assay: Antibacterial activity against Enterococcus faecium 13-7; type: functional
# Enterococcus faecium [26] = assay: Antibacterial activity against Enterococcus faecium ATCC 700221; type: functional
# Bacillus subtilis [27] = assay: Antibacterial activity against Bacillus subtilis MTCC 441 incubated for 24 hrs by microdilution method; type: functional
# [28] = system: Acinetobacter calcoaceticus; assay: Antibacterial activity against Acinetobacter calcoaceticus ATCC 19606; type: functional
# Staphylococcus aureus [29] = assay: Antibacterial activity against Staphylococcus aureus 209P JC1 incubated for 20 hrs by agar dilution method; type: functional
# Proteus mirabilis [30] = assay: Antibacterial activity against Proteus mirabilis ATCC 35659 incubated for 24 hrs by microdilution method; type: functional
# Staphylococcus aureus [31] = assay: Antibacterial activity against methicillin-resistant Staphylococcus aureus ATCC 33591; type: functional
# Pseudomonas aeruginosa [32] = assay: Antibacterial activity against Pseudomonas aeruginosa MTCC 424 by serial dilution method; type: functional
# [33] = system: Staphylococcus epidermidis; assay: Antibacterial activity against Staphylococcus epidermidis incubated for 24 hrs by microdilution method; type: functional
# Staphylococcus aureus [34] = assay: Antibacterial activity against methicillin-sensitive Staphylococcus aureus ATCC 29213; type: functional
# Citrobacter freundii = assay: Antibacterial activity against Citrobacter freundii ATCC 43864; type: functional
# Bacillus cereus [35] = assay: Antibacterial activity against Bacillus cereus ATCC 10876 incubated for 24 hrs by microdilution method; type: functional
# Bacillus cereus [36] = assay: Antibacterial activity against Bacillus cereus by agar dilution method; type: functional
# Escherichia coli [37] = assay: Antibacterial activity against Escherichia coli ATCC 25922 incubated for 24 hrs by tube dilution method; type: functional
# Pseudomonas aeruginosa [38] = assay: Antibacterial activity against Pseudomonas aeruginosa ATCC 27853 incubated for 24 hrs by microdilution method; type: functional
# Bacillus subtilis [39] = assay: Antibacterial activity against Bacillus subtilis MTCC 441 incubated for 24 hrs by two-fold serial dilution method; type: functional
# Morganella morganii = assay: Antibacterial activity against Morganella morganii ATCC 25830; type: functional
# Enterococcus faecalis = assay: Antibacterial activity against Enterococcus faecalis ATCC 29212 incubated for 24 hrs by microdilution method; type: functional
# Staphylococcus aureus [40] = assay: Antibacterial activity against Staphylococcus aureus ATCC 25923 incubated for 24 hrs by tube dilution method; type: functional
# Pseudomonas aeruginosa [41] = assay: Antibacterial activity against Pseudomonas aeruginosa MTCC 424 incubated for 24 hrs by two-fold serial dilution method; type: functional
# Pseudomonas aeruginosa [42] = assay: Antibacterial activity against Pseudomonas aeruginosa ATCC 27853; type: functional
# Providencia rettgeri = assay: Antibacterial activity against Providencia rettgeri ATCC 31052; type: functional
# Klebsiella pneumoniae [43] = assay: Antibacterial activity against Klebsiella pneumonia RCMB 010058 by broth dilution method; type: functional
# Escherichia coli [44] = assay: Antibacterial activity against Escherichia coli NIHJ JC2 incubated for 20 hrs by agar dilution method; type: functional
# Pseudomonas fluorescens = assay: Antibacterial activity against Pseudomonas fluorescens NCIM 2173 incubated for 24 hrs; type: functional
# Salmonella typhimurium = assay: Antibacterial activity against Salmonella typhimurium ATCC 14028 incubated for 24 hrs by broth dilution method; type: functional, Salmonella enterica subsp. enterica serovar Typhimurium; details: Salmonella enterica
# Bacillus cereus [45] = assay: Antibacterial activity against Bacillus cereus RCMB-010067 assessed as diameter of inhibition zone at 5 mg/ml by diffusion technique; type: functional; details: read-out: IZ
# [46] = system: Sphingomonas paucimobilis; assay: Antibacterial activity against Flavobacterium devorans ATCC 10829 incubated for 24 hrs; type: functional
# Staphylococcus aureus [47] = assay: Antibacterial activity against Staphylococcus aureus RCMB-010010 assessed as diameter of inhibition zone at 5 mg/ml by diffusion technique; type: functional; details: read-out: IZ
# Escherichia coli [48] = assay: Antibacterial activity against Escherichia coli ATCC 25922 incubated for 24 hrs by broth dilution method; type: functional
# Bacillus cereus [49] = assay: Antibacterial activity against Bacillus cereus ATCC 6630 incubated for 24 hrs; type: functional
# Micrococcus luteus [50] = assay: Antibacterial activity against Micrococcus Luteus ATCC 398 incubated for 24 hrs; type: functional
# Proteus vulgaris [51] = assay: Antibacterial activity against Proteus vulgaris ATCC 3851 incubated for 24 hrs by broth dilution method; type: functional
# Staphylococcus aureus [52] = assay: Antibacterial activity against Staphylococcus aureus ATCC 29737 incubated for 24 hrs; type: functional
# Bacillus spizizenii = assay: Antibacterial activity against Bacillus subtilis ATCC 6633 incubated for 24 hrs by broth dilution method; type: functional
# Staphylococcus aureus [53] = assay: Antibacterial activity against Staphylococcus aureus ATCC 6538p incubated for 24 hrs by broth dilution method; type: functional
# Micrococcus luteus [54] = assay: Antibacterial activity against Micrococcus luteus IFC 12708 incubated for 24 hrs by broth dilution method; type: functional
smiles,measurement,setting,value
O=C(O)c1cn(C2CC2)c2cc(N3CCNCC3)c(F)cc2c1=O [CIPROFLOXACIN],MIC,Proteus mirabilis [1],≤ 0.03 µg/mL
same,MIC,Pseudomonas aeruginosa [2],0.0063 µg/mL
same,MIC,[3],4.7 µM
same,MIC,Klebsiella pneumoniae [4],0.39 µg/mL
same,MIC,Pseudomonas aeruginosa [5],5.5 µg/mL
same,MIC,Pseudomonas aeruginosa [6],≥ 5 µg/mL
same,MIC,Klebsiella aerogenes,≤ 0.03 µg/mL
same,MIC,Klebsiella pneumoniae [7],0.03 µg/mL
same,MIC,Bacillus cereus [8],6.25 µg/mL
same,MIC,Serratia marcescens,0.03 µg/mL
same,MIC,Klebsiella pneumoniae [9],≤ 0.03 µg/mL
same,MIC,Pseudomonas aeruginosa [10],0.39 µg/mL
same,MIC,Staphylococcus aureus [11],≥ 5 µg/mL
same,MIC,[12],0.03 µg/mL
same,MIC,Staphylococcus aureus [13],2 µg/mL
same,MIC,Klebsiella pneumoniae [14],5.5 µg/mL
same,MIC,Escherichia coli [15],37.7 µM
same,MIC,[16],0.03 µg/mL
same,MIC,Streptococcus pneumoniae,≥ 5 µg/mL
same,MIC,Staphylococcus aureus [17],0.39 µg/mL
same,MIC,Bacillus subtilis [18],≥ 5 µg/mL
same,MIC,Staphylococcus aureus [19],1 µg/mL
same,MIC,[20],0.03 µg/mL
same,MIC,Bacillus subtilis [21],4.7 µM
same,MIC,Escherichia coli [22],≥ 5 µg/mL
same,MIC,Streptococcus pyogenes,5.5 µg/mL
same,MIC,Escherichia coli [23],4.7 µM
same,MIC,Proteus vulgaris [24],≤ 0.03 µg/mL
same,MIC,Enterococcus faecium [25],> 128 µg/mL
same,MIC,Enterococcus faecium [26],> 128 µg/mL
same,MIC,Bacillus subtilis [27],0.39 µg/mL
same,MIC,[28],0.03 µg/mL
same,MIC,Staphylococcus aureus [29],0.0063 µg/mL
same,MIC,Proteus mirabilis [30],1 µg/mL
same,MIC,Staphylococcus aureus [31],0.03 µg/mL
same,MIC,Pseudomonas aeruginosa [32],4.7 µM
same,MIC,[33],0.39 µg/mL
same,MIC,Staphylococcus aureus [34],0.03 µg/mL
same,MIC,Citrobacter freundii,≤ 0.03 µg/mL
same,MIC,Bacillus cereus [35],1 µg/mL
same,MIC,Bacillus cereus [36],2 µg/mL
same,MIC,Escherichia coli [37],5.5 µg/mL
same,MIC,Pseudomonas aeruginosa [38],1 µg/mL
same,MIC,Bacillus subtilis [39],0.0377 µg/mL
same,MIC,Morganella morganii,≤ 0.03 µg/mL
same,MIC,Enterococcus faecalis,1 µg/mL
same,MIC,Staphylococcus aureus [40],5.5 µg/mL
same,MIC,Pseudomonas aeruginosa [41],0.0377 µg/mL
same,MIC,Pseudomonas aeruginosa [42],0.03 µg/mL
same,MIC,Providencia rettgeri,≤ 0.03 µg/mL
same,MIC,Klebsiella pneumoniae [43],≥ 5 µg/mL
same,MIC,Escherichia coli [44],0.0063 µg/mL
CC1(C)S[C@@H]2[C@H](NC(=O)[C@H](N)c3ccccc3)C(=O)N2[C@H]1C(=O)O [AMPICILLIN],MIC,Pseudomonas fluorescens,2 µg/mL
same,MIC,Salmonella typhimurium,1.56 µg/mL
same,zone of inhibition at 5000 µg/mL,Bacillus cereus [45],23.8 mm
same,MIC,[46],2 µg/mL
same,zone of inhibition at 5000 µg/mL,Staphylococcus aureus [47],32.4 mm
same,MIC,Escherichia coli [48],1.56 µg/mL
same,MIC,Bacillus cereus [49],2 µg/mL
same,MIC,Micrococcus luteus [50],2 µg/mL
same,MIC,Proteus vulgaris [51],1.56 µg/mL
same,MIC,Staphylococcus aureus [52],2 µg/mL
same,MIC,Bacillus spizizenii,1.56 µg/mL
same,MIC,Staphylococcus aureus [53],1.56 µg/mL
same,MIC,Micrococcus luteus [54],1.56 µg/mL
